Test results taken from article PMC8952364, “Polyphenols as Inhibitors of Antibiotic Resistant Bacteria—Mechanisms Underlying Rutin Interference with Bacterial Virulence” (Pharmaceuticals, 2022).
Values after ≈ are worked out from the molar mass of the structure shown. Read-outs that look alike come from different tables or passages of the source.

How the values were obtained:
E. coli IBRS E003 = assay: Antimicrobial microdilution assay (MIC/MBC); assay type: cell-based, Escherichia coli; settings: for MIC: 37 °C, 24 h; for MBC: subcultivation, 24 h at 37 °C
Description: (§1) The bacterial suspension (0.5 Mc Farland) was prepared, and twenty-fold dilutions of these suspensions were mixed in a 1:10 ratio with the corresponding polyphenol dilution (0.0039–1 mg/mL). Microtiter plates were incubated at 37 °C for 24 h. The lowest concentrations without visible growth (under a binocular microscope) were defined as MICs. The bactericidal concentrations (MBCs) were determined by serial subcultivation of 2 μL of the well’s content and further incubation for 24 h at 37 °C. Streptomycin (SigmaAldrich, Darmstadt, Germany) was used as a positive control. The polyphenols were obtained from Extrasynthese, Rhone, France (rutin, isoquercitrin) and SigmaAldrich, Germany (hesperetin, hesperidin, naringenin, naringin, taxifolin, morin, chlorogenic acid, ferulic acid, p-coumaric acid, and gallic acid). The stock compounds were prepared in ethanol (30%), and adequate ethanol concentrations were used as the negative control in the assays. Experiments were done in triplicate.

E. coli IMD989 = assay: Antimicrobial microdilution assay (MIC/MBC); assay type: cell-based, Escherichia coli; settings: for MIC: 37 °C, 24 h; for MBC: subcultivation, 24 h at 37 °C
Description: as §1

S. aureus CECT 976 = test system: S. aureus CECT 976; parameters: method as in PMID 22823343; settings: cited from earlier work
P. aeruginosa ATCC 10145 = test system: P. aeruginosa ATCC 10145; parameters: method as in PMID 22823343; settings: cited from earlier work
[1] = test system: eleven antibiotic resistant strains of bacteria; assay: Antimicrobial assay, summary over the examined strains; assay type: cell-based; settings: antibiotic resistant strains of Table 1
Description: as §1

A. xylosoxidans 37F = assay: Antimicrobial microdilution assay (MIC/MBC); assay type: cell-based, Achromobacter xylosoxidans; settings: for MIC: 37 °C, 24 h; for MBC: subcultivation, 24 h at 37 °C
Description: as §1

HaCaT cells [2] = assay: Cytotoxicity in HaCaT cell line (crystal violet assay); assay type: cell-based, human; settings: HaCaT, 24 h treatment, crystal violet
Description: For determination of the polyphenols’ cytotoxic effect, a crystal violet assay was used, with modifications. The cytotoxic effect of polyphenols was analyzed on spontaneously immortalized human skin keratinocytes (HaCaT, AddexBio No. T0020001, San Diego, CA, USA) cell lines. […] Cells (1 × 10^4 cells/well) were seeded in a 96-well plate (Sarstedt, Nümbrecht, Germany) 24 h before treatment. […] Cells were incubated with the compounds for 24 h. […] After crystal violet was removed, the plates were washed in a stream of tap water and left to air-dry at room temperature for 24 h. The absorbance was measured in a microplate reader (Multiskan™ FC Microplate Photometer, Thermo Scientific™) at 590 nm. The results were expressed as IC50 value in μg/mL. The criterion used to categorize the cytotoxic activity polyphenols was as follows: […] All analyses were performed in triplicate; each replicate was also quantified three times. Data were expressed as mean standard deviation, where applicable.

[3] = test system: P. aeruginosa IBRS P001 biofilm; assay: Crystal violet antibiofilm assay (biofilm formation); assay type: cell-based, Pseudomonas aeruginosa; settings: 24 h
Description: After incubation, each well was washed twice with sterile PBS (phosphate-buffered saline, pH 7.4) and fixed with methanol for 10 min. After removal of methanol the plate was air-dried. The biofilm was stained with 0.1% crystal violet (Bio-Merieux, Marcy l’Etoile, France) for 30 min. The plate was washed with water, air dried, and the stain was dissolved with 200 μL of 96% ethanol (Zorka, Sabac, Serbia). The absorbance was read at 620 nm on a Multiskan™ FC microplate photometer (Thermo Scientific™, Waltham, MA, USA). The results are presented as biofilm forming capacity (%) compared to control.

A. baumannii 6077/12 = assay: Antimicrobial microdilution assay (MIC/MBC); assay type: cell-based, Acinetobacter baumannii; settings: for MIC: 37 °C, 24 h; for MBC: subcultivation, 24 h at 37 °C
Description: as §1

A. baumannii S2/2 = assay: Antimicrobial microdilution assay (MIC/MBC); assay type: cell-based, Acinetobacter baumannii; settings: for MIC: 37 °C, 24 h; for MBC: subcultivation, 24 h at 37 °C
Description: as §1

[4] = test system: Methicillin resistant S. aureus IBRS MRSA 011; assay: Antimicrobial microdilution assay (MIC/MBC); assay type: cell-based, Staphylococcus aureus; settings: for MIC: 37 °C, 24 h; for MBC: subcultivation, 24 h at 37 °C
Description: as §1

S. infantis 1371/1 = assay: Antimicrobial microdilution assay (MIC/MBC); assay type: cell-based, Salmonella Infantis; settings: for MIC: 37 °C, 24 h; for MBC: subcultivation, 24 h at 37 °C
Description: as §1

P. aeruginosa IBRS P001 = assay: Antimicrobial microdilution assay (MIC/MBC); assay type: cell-based, Pseudomonas aeruginosa; settings: for MIC: 37 °C, 24 h; for MBC: subcultivation, 24 h at 37 °C
Description: as §1

P. aeruginosa MMA83 = assay: Antimicrobial microdilution assay (MIC/MBC); assay type: cell-based, Pseudomonas aeruginosa; settings: for MIC: 37 °C, 24 h; for MBC: subcultivation, 24 h at 37 °C
Description: as §1

E. coli CECT434 = test system: E. coli CECT434; parameters: method as in PMID 22823343; settings: cited from earlier work
K. pneumoniae Ni9 = assay: Antimicrobial microdilution assay (MIC/MBC); assay type: cell-based, Klebsiella pneumoniae; settings: for MIC: 37 °C, 24 h; for MBC: subcultivation, 24 h at 37 °C
Description: as §1

K. pneumoniae IT977 = assay: Antimicrobial microdilution assay (MIC/MBC); assay type: cell-based, Klebsiella pneumoniae; settings: for MIC: 37 °C, 24 h; for MBC: subcultivation, 24 h at 37 °C
Description: as §1

[5] = test system: P. aeruginosa ATCC 10145 biofilms; parameters: method as in PMID 22823343; settings: 1000 µg/mL; cited from earlier work
HaCaT cells [6] = test system: HaCaT cells; parameters: method as in PMID 28962387; settings: previous assessment; cited from earlier work
E. coli ATCC 25922 = test system: E. coli ATCC 25922; parameters: method as in PMID 29327068; settings: cited from earlier work

Q: Which results are given for `COc1cc(/C=C/C(=O)O)ccc1O` [Ferulic acid, ferulic acid]?
A: MIC (E. coli IBRS E003): >1000 µg/mL; MBC (E. coli IBRS E003): >1000 µg/mL; MIC (E. coli IMD989): 1000 µg/mL (≈ 5.15 mM); MBC (E. coli IMD989): 1000 µg/mL (≈ 5.15 mM); MIC (S. aureus CECT 976): 1100 µg/mL (≈ 5.66 mM); MIC (P. aeruginosa ATCC 10145): 100 µg/mL (≈ 0.515 mM); lowest MIC among the examined strains [1]: 500 µg/mL; MIC (A. xylosoxidans 37F): 1000 µg/mL (≈ 5.15 mM); MBC (A. xylosoxidans 37F): 1000 µg/mL (≈ 5.15 mM); IC50 (compound concentration that inhibited 50% of the cell growth) (HaCaT cells [2]): >1000 µg/mL; biofilm inhibition ([3]; 500 µg/mL (MIC)): even higher inhibition; reduction of biofilm formation (biomass), in words ([3]; MIC and sub-MIC, crystal violet, Figure 1): significant (****, p < 0.0001) reduction; MIC (A. baumannii 6077/12): 500 µg/mL (≈ 2.57 mM); MBC (A. baumannii 6077/12): 500 µg/mL (≈ 2.57 mM); MIC (A. baumannii S2/2): 500 µg/mL (≈ 2.57 mM); MBC (A. baumannii S2/2): 500 µg/mL (≈ 2.57 mM); MIC [4]: 500 µg/mL (≈ 2.57 mM); MBC [4]: 1000 µg/mL (≈ 5.15 mM); MIC (S. infantis 1371/1): 1000 µg/mL (≈ 5.15 mM); MBC (S. infantis 1371/1): 1000 µg/mL (≈ 5.15 mM); MIC (P. aeruginosa IBRS P001): 500 µg/mL (≈ 2.57 mM); MBC (P. aeruginosa IBRS P001): 1000 µg/mL (≈ 5.15 mM); MIC (P. aeruginosa MMA83): 1000 µg/mL (≈ 5.15 mM); MBC (P. aeruginosa MMA83): 1000 µg/mL (≈ 5.15 mM); MIC (E. coli CECT434): 100 µg/mL (≈ 0.515 mM); MIC (K. pneumoniae Ni9): 1000 µg/mL (≈ 5.15 mM); MBC (K. pneumoniae Ni9): 1000 µg/mL (≈ 5.15 mM); MIC (K. pneumoniae IT977): 1000 µg/mL (≈ 5.15 mM); MBC (K. pneumoniae IT977): 1000 µg/mL (≈ 5.15 mM); reduction of biofilms [5]: more than 70%

Q: For `O=C(O)c1cc(O)c(O)c(O)c1` [Gallic Acid, gallic acid], which MIC (E. coli IBRS E003) is on record?
A: >1000 µg/mL

Q: What about the MIC (E. coli IBRS E003; Escherichia coli, IBRSE003, read-out: MIC) of the same compound?
A: > 1000 µg/mL

Q: And the MBC (E. coli IBRS E003; Escherichia coli, IBRSE003, read-out: MBC)?
A: > 1000 µg/mL

Q: And the MIC (E. coli IMD989)?
A: >1000 µg/mL

Q: What about the MIC (E. coli IMD989; Escherichia coli, IMD989, read-out: MIC) of the same compound?
A: > 1000 µg/mL

Q: And the MBC (E. coli IMD989; Escherichia coli, IMD989, read-out: MBC)?
A: > 1000 µg/mL

Q: What about the “IC50 towards HaCaT cells” value (HaCaT cells [6]) of the same compound?
A: 84.2 µg/mL (≈ 0.495 mM)

Q: What about the MIC (A. xylosoxidans 37F; Achromobacter xylosoxidans, 37F, read-out: MIC) of the same compound?
A: 500 µg/mL (≈ 2.94 mM)

Q: What about the MBC (A. xylosoxidans 37F; Achromobacter xylosoxidans, 37F, read-out: MBC) of the same compound?
A: 1000 µg/mL (≈ 5.88 mM)

Q: What about the IC50 (HaCaT cells [2]; Homo sapiens, read-out: IC50 (compound concentration that inhibited 50% of the cell growth)) of the same compound?
A: < 80 µg/mL

Q: And the MIC (A. baumannii 6077/12; Acinetobacter baumannii, 6077/12, read-out: MIC)?
A: 500 µg/mL (≈ 2.94 mM)

Q: What about the MBC (A. baumannii 6077/12; Acinetobacter baumannii, 6077/12, read-out: MBC) of the same compound?
A: 1000 µg/mL (≈ 5.88 mM)

Q: What about the MIC (A. baumannii S2/2; Acinetobacter baumannii, S2/2, read-out: MIC) of the same compound?
A: 500 µg/mL (≈ 2.94 mM)

Q: And the MBC (A. baumannii S2/2; Acinetobacter baumannii, S2/2, read-out: MBC)?
A: 500 µg/mL (≈ 2.94 mM)

Q: What about the MIC (E. coli ATCC 25922) of the same compound?
A: 500 µg/mL (≈ 2.94 mM)

Q: What about the MIC ([4]; Staphylococcus aureus, MRSA, read-out: MIC) of the same compound?
A: > 1000 µg/mL

Q: And the MBC ([4]; Staphylococcus aureus, MRSA, read-out: MBC)?
A: > 1000 µg/mL

Q: What about the MIC (S. infantis 1371/1; Salmonella enterica, 1371/1, read-out: MIC) of the same compound?
A: > 1000 µg/mL

Q: What about the MBC (S. infantis 1371/1; Salmonella enterica, 1371/1, read-out: MBC) of the same compound?
A: > 1000 µg/mL

Q: What about the MIC (P. aeruginosa IBRS P001; Pseudomonas aeruginosa, IBRSP001, read-out: MIC) of the same compound?
A: > 1000 µg/mL

Q: What about the MBC (P. aeruginosa IBRS P001; Pseudomonas aeruginosa, IBRSP001, read-out: MBC) of the same compound?
A: > 1000 µg/mL

Q: What about the MIC (P. aeruginosa MMA83; Pseudomonas aeruginosa, MMA83, read-out: MIC) of the same compound?
A: 1000 µg/mL (≈ 5.88 mM)

Q: What about the MBC (P. aeruginosa MMA83; Pseudomonas aeruginosa, MMA83, read-out: MBC) of the same compound?
A: 1000 µg/mL (≈ 5.88 mM)

Q: And the MIC (K. pneumoniae Ni9; Klebsiella pneumoniae, NI9, read-out: MIC)?
A: 1000 µg/mL (≈ 5.88 mM)

Q: And the MBC (K. pneumoniae Ni9; Klebsiella pneumoniae, NI9, read-out: MBC)?
A: 1000 µg/mL (≈ 5.88 mM)

Q: And the MIC (K. pneumoniae IT977; Klebsiella pneumoniae, IT977, read-out: MIC)?
A: 1000 µg/mL (≈ 5.88 mM)

Q: And the MBC (K. pneumoniae IT977; Klebsiella pneumoniae, IT977, read-out: MBC)?
A: 1000 µg/mL (≈ 5.88 mM)
